For 12 compounds, AC50 results are on record in PubChem BioAssay AID463229 (Broad Institute, 2010).

The structures appear in SMILES notation.

The test system of this assay is INS-1E rat beta cells, no cytokines, CellTiter-Glo ATP, 48 h. Kind of assay: cytokine-free beta-cell viability effect – INS-1E rat cells, ATP luminescence, cherry pick, counter-screen for beta-cell apoptosis protection project, dose response (AID 463229).
As for `On1onc2c3cc(-c4ccccc4)nc3ccc21`, the AC50 (commonly the concentration at which the activity in the assay is half-maximal) was 5.23 µM.

As for `COc1cccc(/C=N/NC(=O)c2cc3c(OC)ccc(OC)c3[nH]2)c1O`, the AC50 is 10.7 µM.

In the case of `Cc1[nH]n(C2=NCCS2)c(=O)c1N=Nc1cccc(C(F)(F)F)c1`, the AC50 is 7.05 µM.

On to `Cc1cc(C(=O)C(C)OC(=O)c2ccc(NC(=O)CC#N)cc2)c(C)n1-c1ccc(OC(F)F)cc1` (configuration not stated), for which the AC50 was 8.14 µM.

For the compound `C=C(C(=O)c1ccccc1)C(C)C(=C)C(=O)c1ccccc1`, the AC50 is 7.84 µM.

For `O=C1c2ccc3c4c(ccc(c24)C(=O)N1c1cccc(O)c1)C(=O)N(c1cccc(O)c1)C3=O`, the AC50 is 3.36 µM.

`Cc1cc(C)c2sc(NNC(=O)c3ccc(S(=O)(=O)N4CCc5ccccc5C4)cc3)nc2c1`: the AC50 was 3.38 µM.

With `Cc1ccc(NC2=C/C(=N/S(=O)(=O)c3cccs3)c3ccccc3C2=O)cc1`, the half-maximal activity concentration (AC50) is 2.37 µM.

As for `Cc1ccn2c(Nc3ccccc3)c(-c3ccccn3)nc2c1`, the AC50 is 7.4 µM.

As to `CC1CCC(C(C)C)C(OC(=O)Cn2c(-c3ccc(Cl)cc3)[n+](C)c3ccccc32)C1` (configuration not stated), the half-maximal activity concentration (AC50) is 3.83 µM.

Take `CCN(CC)c1ccc(/C=N/NC(=S)NCc2ccccc2)c(O)c1`: the half-maximal activity concentration (AC50) is 12.3 µM.

Consider `Cc1ccc(NC2=CC(=O)C(=O)c3ccccc32)c(C)c1`, for which the AC50 is 4.39 µM.
